What all share (assay type): cell-based
Assay [1] has as its system Pseudomonas aeruginosa DSM # 939. The experiment in a line: Minimum Inhibitory Concentration (MIC) test and synergy index, Pseudomonas aeruginosa. The settings on record: alone or in the mixture, TSB pH 7.3, 30° C. for 2 days. The protocol:
(§1) The synergism of the biocides combination of the present invention was determined using the method described by Kull, F. C., et. al in Applied Microbiology 9:538-541 (1961). […] The Minimum Inhibitory Test (MIC) is designed to evaluate the lowest concentration of a biocide, biocide blend or biocide combination to prevent bacteria, yeast, or fungi from growing in a defined broth. After incubation, the samples are rated based on visually detectable turbidity. This test was carried out with a dilution factor of 1.5 for the biocides. • 1. Test samples were prepared in equal volumes in transparent containers. The biocide dilutions were done in tryptic soy broth (TSB) at pH of 7.3 for the bacteria and in malt extract broth (MEB) at pH 5.4 for the fungi strain. • 16 samples per biocide product and species to be tested were prepared in duplicates by serial dilution with a dilution factor of 1.5. • Per strain of micro-organism two samples not containing any biocide was added as a control. • 2. […] After incubation for 1 day at 30° C. the strains were harvested with buffer pH 7.3. • The concentration of cells was assessed by using a standard viable count technique. • For the inoculum, dilutions were made in buffer pH 7.3. • Yeast culture: [table] • 4. Reading was done visually by a growth/no growth rating. […]

Assay [2] deals with Staphylococcus Aureus DSM # 799. As to the kind of experiment: Minimum Inhibitory Concentration (MIC) test and synergy index, Staphylococcus aureus. The settings on record: alone or in the mixture, TSB pH 7.3, 30° C. for 2 days. On the procedure: as §1
Assay [3] deals with Candida Albicans DSM # 1386. The experiment in a line: Minimum Inhibitory Concentration (MIC) test and synergy index, Candida albicans. The following applies: alone or in the mixture, MEB pH 5.4, 28° C. for 2 days. On the procedure:
The synergism of the biocides combination of the present invention was determined using the method described by Kull, F. C., et. al in Applied Microbiology 9:538-541 (1961). […] The Minimum Inhibitory Test (MIC) is designed to evaluate the lowest concentration of a biocide, biocide blend or biocide combination to prevent bacteria, yeast, or fungi from growing in a defined broth. After incubation, the samples are rated based on visually detectable turbidity. This test was carried out with a dilution factor of 1.5 for the biocides. • 1. Test samples were prepared in equal volumes in transparent containers. The biocide dilutions were done in tryptic soy broth (TSB) at pH of 7.3 for the bacteria and in malt extract broth (MEB) at pH 5.4 for the fungi strain. • 16 samples per biocide product and species to be tested were prepared in duplicates by serial dilution with a dilution factor of 1.5. • Per strain of micro-organism two samples not containing any biocide was added as a control. • 2. […] Reading was done visually by a growth/no growth rating. […]

This is an account of results in US20180042227A1, “SYNERGISTIC ANTIMICROBIAL COMPOSITION” (Dow Global Technologies LLC, priority 2015, published 2018).

Take `CNC(=O)c1ccccc1SSc1ccccc1C(=O)NC` [DTBMA alone, dithio-2,2′-bis-benzmethylamide]: the “Minimum Concentration (active ppm) to Inhibit Growth, DTBMA” value is listed as 222 active ppm in assay [1] (DTBMA concentration), 20 active ppm in assay [2] (DTBMA concentration) and 148 active ppm in assay [3] (DTBMA concentration).

Regarding `CCCCCCCCCCCCN(CCCN)CCCN` [Diamine alone, N-(3-Aminopropyl)-N-dodecylpropane-1,3-diamine], the “Minimum Concentration (active ppm) to Inhibit Growth, Diamine” value in assay [1] (Diamine concentration) is given as 148 active ppm; in assay [2] (Diamine concentration) it was 44 active ppm; in assay [3] (Diamine concentration) it was 148 active ppm.
